# Measured values taken from patent US8471005B2 (Cephalon, Inc., priority 2008, dated 2013).
# Read-outs that look alike come from different tables or passages of the source.
# How the values were obtained:
# JAK2 = target: T1, JAK2 (Homo sapiens, UniProt O60674); assay: Recombinant Human JAK2 Kinase Assay (TRF); format: biochemical; conditions: read-out: JAK2 Potency
# T1 construct: host or cells: baculovirus expression system
# Summary of the method: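 TRF read-out: Eu-N1 PY100 anti-phosphotyrosine antibody detects product. Enzyme is baculovirus-expressed JAK2 at 15 ng/ml; substrate is a biotinyl 15-mer peptide bound to Neutravidin-coated wells. Buffer 20 mM HEPES pH 7.2, 0.2 μM ATP, 1 mM MnCl2, 0.1% BSA, 2.5% DMSO final; 20 min, RT.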
# ALK = target: T2, ALK (Homo sapiens, UniProt Q9UM73); assay: ALK Kinase Assay (ELISA/TRF, PLC-γ substrate); format: biochemical; conditions: read-out: ALK Potency
# T2 construct: host or cells: baculovirus expression system
# T2 sequence (Q9UM73 19-1620): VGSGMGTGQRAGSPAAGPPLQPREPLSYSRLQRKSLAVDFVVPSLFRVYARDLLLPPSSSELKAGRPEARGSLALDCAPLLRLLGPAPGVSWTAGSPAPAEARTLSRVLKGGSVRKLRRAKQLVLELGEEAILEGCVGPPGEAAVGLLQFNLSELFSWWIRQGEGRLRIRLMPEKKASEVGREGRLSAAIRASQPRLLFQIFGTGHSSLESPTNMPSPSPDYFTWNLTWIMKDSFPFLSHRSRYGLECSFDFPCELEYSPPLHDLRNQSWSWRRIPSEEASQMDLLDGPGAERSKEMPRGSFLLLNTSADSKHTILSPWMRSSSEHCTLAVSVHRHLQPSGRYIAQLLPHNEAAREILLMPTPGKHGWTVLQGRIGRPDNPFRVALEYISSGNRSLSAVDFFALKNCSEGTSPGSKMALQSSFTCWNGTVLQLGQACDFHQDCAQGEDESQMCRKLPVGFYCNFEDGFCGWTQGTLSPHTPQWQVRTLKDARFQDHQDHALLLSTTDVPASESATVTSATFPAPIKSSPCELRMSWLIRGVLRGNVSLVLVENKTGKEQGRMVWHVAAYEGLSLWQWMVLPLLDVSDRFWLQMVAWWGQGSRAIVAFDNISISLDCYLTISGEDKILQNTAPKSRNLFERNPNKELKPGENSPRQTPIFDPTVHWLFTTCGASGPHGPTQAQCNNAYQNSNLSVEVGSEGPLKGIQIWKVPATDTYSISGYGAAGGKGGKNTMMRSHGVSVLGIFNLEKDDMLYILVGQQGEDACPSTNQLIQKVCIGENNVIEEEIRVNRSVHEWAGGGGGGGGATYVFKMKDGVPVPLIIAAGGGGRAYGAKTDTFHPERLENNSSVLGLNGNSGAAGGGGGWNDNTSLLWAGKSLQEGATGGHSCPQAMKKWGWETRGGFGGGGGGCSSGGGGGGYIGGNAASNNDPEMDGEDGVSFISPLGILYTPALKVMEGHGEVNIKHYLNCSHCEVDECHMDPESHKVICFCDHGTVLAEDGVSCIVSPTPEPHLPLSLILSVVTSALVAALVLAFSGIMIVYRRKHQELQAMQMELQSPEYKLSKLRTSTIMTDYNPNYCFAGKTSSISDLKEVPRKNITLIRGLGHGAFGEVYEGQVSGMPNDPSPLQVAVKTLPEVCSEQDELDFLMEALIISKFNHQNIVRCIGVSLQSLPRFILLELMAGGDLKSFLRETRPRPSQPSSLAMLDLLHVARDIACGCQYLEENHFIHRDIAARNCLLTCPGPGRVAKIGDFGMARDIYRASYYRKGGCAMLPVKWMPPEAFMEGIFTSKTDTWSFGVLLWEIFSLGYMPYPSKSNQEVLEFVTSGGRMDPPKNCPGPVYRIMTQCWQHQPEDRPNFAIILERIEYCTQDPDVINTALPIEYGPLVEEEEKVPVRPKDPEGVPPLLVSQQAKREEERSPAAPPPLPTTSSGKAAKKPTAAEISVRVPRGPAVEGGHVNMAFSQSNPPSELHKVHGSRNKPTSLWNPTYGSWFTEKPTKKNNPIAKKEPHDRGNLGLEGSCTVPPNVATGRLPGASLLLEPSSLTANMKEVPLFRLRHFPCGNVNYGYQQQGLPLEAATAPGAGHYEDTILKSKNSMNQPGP
# Summary of the method: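 PLC-γ coat 10 μg/mL in TBS; ALK 30 ng/ml added to start; 37° C, 15 min; Eu-N1 PT66 antibody detection (TRF). IC50: % inhibition vs log10 [cpd], variable-slope sigmoidal fit.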
# [1] = JAK2 kinase inhibition, 0.2 μM ATP
# [2] = ALK kinase inhibition, 1 μM ATP
# T1 sequence (O60674 whole entry): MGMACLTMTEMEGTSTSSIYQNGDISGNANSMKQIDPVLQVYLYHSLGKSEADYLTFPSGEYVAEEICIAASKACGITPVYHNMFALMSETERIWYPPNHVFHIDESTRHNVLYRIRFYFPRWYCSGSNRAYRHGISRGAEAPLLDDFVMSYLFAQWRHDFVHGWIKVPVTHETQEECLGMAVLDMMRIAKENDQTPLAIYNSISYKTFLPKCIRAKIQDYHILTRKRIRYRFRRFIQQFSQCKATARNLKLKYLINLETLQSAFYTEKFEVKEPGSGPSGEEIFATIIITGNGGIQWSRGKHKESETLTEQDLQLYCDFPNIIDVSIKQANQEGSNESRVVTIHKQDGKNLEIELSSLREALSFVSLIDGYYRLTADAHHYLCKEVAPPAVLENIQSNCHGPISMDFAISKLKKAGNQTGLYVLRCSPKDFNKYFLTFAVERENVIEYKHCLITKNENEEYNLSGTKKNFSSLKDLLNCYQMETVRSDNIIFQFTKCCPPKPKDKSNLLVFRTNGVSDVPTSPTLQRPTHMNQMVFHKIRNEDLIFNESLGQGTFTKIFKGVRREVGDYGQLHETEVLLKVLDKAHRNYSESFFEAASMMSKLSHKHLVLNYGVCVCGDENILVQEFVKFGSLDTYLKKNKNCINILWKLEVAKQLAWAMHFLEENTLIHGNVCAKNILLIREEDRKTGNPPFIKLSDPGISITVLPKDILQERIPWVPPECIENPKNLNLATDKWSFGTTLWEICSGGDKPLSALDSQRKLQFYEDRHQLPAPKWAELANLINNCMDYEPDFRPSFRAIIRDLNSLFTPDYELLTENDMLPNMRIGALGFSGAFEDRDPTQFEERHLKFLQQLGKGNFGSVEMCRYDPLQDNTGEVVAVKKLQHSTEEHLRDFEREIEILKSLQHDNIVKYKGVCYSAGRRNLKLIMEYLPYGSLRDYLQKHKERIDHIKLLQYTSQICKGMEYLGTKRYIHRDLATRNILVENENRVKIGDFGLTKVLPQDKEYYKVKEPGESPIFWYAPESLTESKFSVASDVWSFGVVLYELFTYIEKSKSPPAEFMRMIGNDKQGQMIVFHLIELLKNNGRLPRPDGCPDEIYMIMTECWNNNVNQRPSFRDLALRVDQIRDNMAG
Compound,IC50 (JAK2; [1]) [nM],IC50 (ALK; [2]) [nM],IC50 (JAK2; JAK2 Kinase Inhibition) [nM],IC50 (ALK; ALK Kinase Inhibition) [nM]
"CS(=O)(=O)c1ccc(-c2ccc3cnc(Nc4ccc5c(c4)NC(=O)C(NC(=O)C(F)(F)F)CC5)nn23)cc1 (centres unmarked) [Example 1174, 2,2,2-Trifluoro-N-{8-[7-(4-methanesulfonyl-phenyl)-pyrrolo[2,1-f][1,2,4]triazin-2-ylamino]-2-oxo-2,3,4,5-tetrahydro-1H-benzo[b]azepin-3-yl}-acetamide]",< 100,> 10000,–,–
"COc1cc(C2CCN(CC(N)=O)CC2)ccc1Nc1ncc2cc(C)c(-c3ccccc3N(C)S(C)(=O)=O)n2n1 [Example 515, 2-[4-(4-{7-[2-(Methanesulfonyl-methyl-amino)-phenyl]-6-methyl-pyrrolo[2,1-f][1,2,4]triazin-2-ylamino}-3-methoxy-phenyl)-piperidin-1-yl]-acetamide]",1000 to 10000,1000 to 10000,–,–
"COc1ccc(-c2ccc3cnc(Nc4ccc(N5CCN(C)CC5)nc4)nn23)cn1 [Example 1109, [7-(6-Methoxy-pyridin-3-yl)-pyrrolo[2,1-f][1,2,4]triazin-2-yl]-[6-(4-methyl-piperazin-1-yl)-pyridin-3-yl]-amine]",< 100,100 to 1000,–,–
"CN1CCN(C2CCCN(c3ccc(Nc4ncc5ccc(-c6cccnc6)n5n4)cc3)C2)CC1 (centres unmarked) [Example 352, {4-[3-(4-Methyl-piperazin-1-yl)-piperidin-1-yl]-phenyl}-(7-pyridin-3-yl-pyrrolo[2,1-f][1,2,4]triazin-2-yl)-amine]",–,–,< 100,100 to 1000
"COc1ccccc1-c1ccc2cnc(Nc3ccc(=O)[nH]c3)nn12 [Example 591, 5-[7-(2-Methoxy-phenyl)-pyrrolo[2,1-f][1,2,4]triazin-2-ylamino]-1H-pyridin-2-one]",< 100,1000 to 10000,–,–
"COc1cc(C2CCN(C(=O)CN(C)C)CC2)ccc1Nc1ncc2ccc(-c3ccccc3OC)n2n1 [Example 815, 2-Dimethylamino-1-(4-{3-methoxy-4-[7-(2-methoxy-phenyl)-pyrrolo[2,1-f][1,2,4]triazin-2-ylamino]-phenyl}-piperidin-1-yl)-ethanone]",100 to 1000,< 100,–,–
"COc1ccc(-c2ccc3cnc(Nc4ccc(N5CCN(C)CC5)cc4OC)nn23)cn1 [Example 73, [2-Methoxy-4-(4-methyl-piperazin-1-yl)-phenyl]-[7-(6-methoxy-pyridin-3-yl)-pyrrolo[2,1-f][1,2,4]triazin-2-yl]-amine]",–,–,< 100,< 100
"Cc1nc(-c2ccc3cnc(Nc4ccc(N5CCOCC5)cc4)nn23)cn1C [Example 1044, [7-(1,2-Dimethyl-1H-imidazol-4-yl)-pyrrolo[2,1-f][1,2,4]triazin-2-yl]-(4-morpholin-4-yl-phenyl)-amine]",< 100,1000 to 10000,–,–
"COc1cc(N(C)C(=O)CN2CCOCC2)ccc1Nc1ncc2ccc(-c3ccccc3N(C)S(C)(=O)=O)n2n1 [Example 473, N-(4-{7-[2-(Methanesulfonyl-methyl-amino)-phenyl]-pyrrolo[2,1-f][1,2,4]triazin-2-ylamino}-3-methoxy-phenyl)-N-methyl-2-morpholin-4-yl-acetamide]",1000 to 10000,< 100,–,–
"COc1cc(N2CCCN(C3CCN(C)CC3)CC2)ccc1Nc1ncc2ccc(-c3ccccc3OC)n2n1 [Example 789, {2-Methoxy-4-[4-(1-methyl-piperidin-4-yl)-[1,4]diazepan-1-yl]-phenyl}-[7-(2-methoxy-phenyl)-pyrrolo[2,1-f][1,2,4]triazin-2-yl]-amine]",100 to 1000,< 100,–,–
"COc1ccc(-c2ccc3cnc(Nc4ccc5c(c4)N(C(C)=O)CCCC5)nn23)cn1 [Example 631, 1-{8-[7-(6-Methoxy-pyridin-3-yl)-pyrrolo[2,1-f][1,2,4]triazin-2-ylamino]-2,3,4,5-tetrahydro-benzo[b]azepin-1-yl}ethanone]",< 100,> 10000,–,–
"Cc1nn(C)cc1-c1ccc2cnc(Nc3ccc(N4CCN(C)CC4)cc3)nn12 [Example 1229, [7-(1,3-Dimethyl-1H-pyrazol-4-yl)-pyrrolo[2,1-f][1,2,4]triazin-2-yl]-[4-(4-methyl-piperazin-1-yl)-phenyl]-amine]",< 100,100 to 1000,–,–

# Further lines, results first:
IC50 (JAK2; [1]) [nM],IC50 (ALK; [2]) [nM],IC50 (JAK2; JAK2 Kinase Inhibition) [nM],IC50 (ALK; ALK Kinase Inhibition) [nM],Compound
–,–,< 100,100 to 1000,"COc1cc(N2CCN(C)CC2)ccc1Nc1ncc2ccc(-c3ccc(S(C)(=O)=O)cc3)n2n1 [Example 62, [7-(4-Methanesulfonyl-phenyl)-pyrrolo[2,1-f][1,2,4]triazin-2-yl]-[2-methoxy-4-(4-methyl-piperazin-1-yl)-phenyl]-amine]"
–,–,< 100,100 to 1000,"CN1CCN(c2ccc(Nc3ncc4ccc(-c5cccc(S(=O)(=O)N6CCCC6)c5)n4n3)cc2)CC1 [Example 367, [4-(4-Methyl-piperazin-1-yl)-phenyl]-{7-[3-(pyrrolidine-1-sulfonyl)-phenyl]-pyrrolo[2,1-f][1,2,4]triazin-2-yl}-amine]"
< 100,1000 to 10000,–,–,"CC(=O)N1CCc2ccc(Nc3ncc4ccc(-c5cnn(C)c5)n4n3)cc21 [Example 966, 1-{6-[7-(1-Methyl-1H-pyrazol-4-yl)-pyrrolo[2,1-f][1,2,4]triazin-2-ylamino]-2,3-dihydro-indol-1-yl}-ethanone]"
–,–,< 100,< 100,"COc1ccccc1-c1ccc2cnc(Nc3ccc(N4CCC(N5CCN(C)CC5)CC4)cc3)nn12 [Example 310, [7-(2-Methoxy-phenyl)-pyrrolo[2,1-f][1,2,4]triazin-2-yl]-{4-[4-(4-methyl-piperazin-1-yl)-piperidin-1-yl]-phenyl}-amine]"
–,–,< 100,> 10000,"Clc1cccc(-c2ccc3cnc(Nc4ccc(N5CCOCC5)cc4)nn23)c1 [Example 1, [7-(3-Chloro-phenyl)-pyrrolo[2,1-f][1,2,4]triazin-2-yl]-(4-morpholin-4-yl-phenyl)-amine]"
–,–,< 100,1000 to 10000,"COc1ccc(-c2ccc3cnc(Nc4ccc(C(F)(F)C(=O)N5CCN(C)CC5)cc4)nn23)cn1 [Example 1516, 2,2-Difluoro-2-{4-[7-(6-methoxy-pyridin-3-yl)-pyrrolo[2,1-f][1,2,4]triazin-2-ylamino]-phenyl}-1-(4-methyl-piperazin-1-yl)-ethanone]"
–,–,< 100,< 100,"COc1cc(N2CCCC(N3CCN(C(C)=O)CC3)C2)ccc1Nc1ncc2ccc(-c3ccccc3OC)n2n1 (centres unmarked) [Example 232, 1-[4-(1-{3-Methoxy-4-[7-(2-methoxy-phenyl)-pyrrolo[2,1-f][1,2,4]triazin-2-ylamino]-phenyl}-piperidin-3-yl)-piperazin-1-yl]-ethanone]"
–,–,< 100,> 10000,"COc1ccc(Nc2ncc3ccc(-c4cccc(Cl)c4)n3n2)cc1 [Example 155, [7-(3-Chloro-phenyl)-pyrrolo[2,1-f][1,2,4]triazin-2-yl]-(4-methoxy-phenyl)-amine]"
–,–,< 100,1000 to 10000,"CC(C)(C)NS(=O)(=O)c1cccc(-c2ccc3cnc(Nc4cccc(C(N)=O)c4)nn23)c1 [Example 1390, 3-[7-(3-tert-Butylsulfamoyl-phenyl)-pyrrolo[2,1-f][1,2,4]triazin-2-ylamino]-benzamide]"
< 100,< 100,–,–,"Cc1cc(Nc2ncc3ccc(-c4ccc(S(C)(=O)=O)cc4)n3n2)ccc1C1CCN(CC(N)=O)CC1 [Example 949, 2-(4-{4-[7-(4-Methanesulfonyl-phenyl)-pyrrolo[2,1-f][1,2,4]triazin-2-ylamino]-2-methyl-phenyl}-piperidin-1-yl)-acetamide]"
